Results: patent US20150159169A1, “Plants Tolerant to HPPD Inhibitor Herbicides” (Bayer CropScience AG, priority 2009, published 2015)
“And” between values parts separate entries of the source, which are not always exact repeats. Equal entries are not always repeated.

Key:
[1] = test system: T1 tobacco plants containing Arabidopsis HPPD; test: Glasshouse spray trial, % injury; assay type: in vivo, Nicotiana tabacum; settings: 7DAT, 100 gAI/ha spray
Protocol: (§1) T0 Tobacco plants containing either the gene from Arabidopsis coding for HPPD or the gene FMP27e from Kordia algicida coding for FMP27 HPPD, mentioned above (Example 3), were transferred to the glasshouse (28/20° C.), to develop further and produce seeds. Those seeds were harvested and put on soil (ED73 mixed with sand and osmocote Pro) to germinate in the glasshouse (28/20° C.). Three to four weeks later, plantlets were transferred to single pots containing the soil mentioned above. Two weeks later, plants of a size 4-6 cm diameter were sprayed with either • tembotrione at 100 gAI/ha prepared from a WP20 (wettable powder 20%) formulation supplemented with ammonium sulfate and methyl ester raps oil, or • isoxaflutole at 100 gAI/ha prepared from a WP20 formulation supplemented with ammonium sulfate and methyl ester raps oil, or • bicyclopyrone at 100 gAI/ha prepared from a WP20 formulation supplemented with ammonium sulfate and methyl ester raps oil, or • “blind formulation” made from a WP20 formulation without active ingredient (AI) supplemented with ammonium sulfate and methyl ester raps oil, and were then transferred to a growth chamber with adequate light conditions (20000 Lux).
(§2) Table 6: Wild type tobacco plants (A) and T1 populations of tobacco events containing alternatively, the expression cassettes described above having the promoter CaMV 35S, the sequence coding for OTP and the sequence coding for Arabidopsis HPPD (B) or the promoter CaMV35S, the sequence encoding OTP, and the sequence FMP27e coding for the HPPD FMP27 (C). Assessments of herbicidal damage at 7 days after application (DAT) per spray with 100 g AI/ha of tembotrione or isoxaflutole supplemented with ammonium sulfate and methyl ester raps oil. […] Plants belonging to categories (B) and (C) have not been selected for the presence of the respective transgene prior to the herbicide application.

wild type tobacco plants = test: Glasshouse spray trial, % injury; assay type: in vivo, Nicotiana tabacum; settings: 7DAT, 100 gAI/ha spray; individual WT plants; 100% = bleaching as wild type
Protocol: as §1, §2

[2] = test system: T1 tobacco plants containing FMP27e (Kordia algicida HPPD FMP27); test: Glasshouse spray trial, % injury; assay type: in vivo, Nicotiana tabacum; settings: 7DAT, 100 gAI/ha spray
Protocol: as §1, §2

wild-type soybean shoots = test: Soybean shoot greening on isoxaflutole selection; assay type: cell-based; settings: same amount of isoxaflutole
From the text: (§3) Soybean transformation was achieved using methods well known in the art, such as the one described using the Agrobacterium tumefaciens mediated transformation soybean half-seed explants described by Paz et al. (2006, Plant cell Rep. 25:206). Transformants were identified using Isoxaflutole as selection marker. The appearance of green shoots was observed, and documented as an indicator of tolerance to the herbicide isoxaflutole. […] Tolerant green shoots were transferred to rooting media or grafted. Rooted plantlets were transferred to the glasshouse after an acclimation period.

[3] = test system: transgenic soybean shoots (FMP27 protein); test: Soybean shoot greening on isoxaflutole selection; assay type: cell-based; settings: isoxaflutole as selection marker
From the text: as §3

Compound: CS(=O)(=O)c1cc(C(F)(F)F)ccc1C(=O)c1cnoc1C1CC1 [Isoxaflutole, (5-cyclopropyl-4-isoxazolyl)[2-(methylsulfonyl)-4-(trifluoromethyl)phenyl]methanone]
- % injury ([1]; line 252, individual T1 plants): 30% and 70% and 95% and 98% (2×) and 99% (4×) and 100% (4×)
- % injury ([1]; line 258, individual T1 plants): 100%
- % injury ([1]; line 327, individual T1 plants): 10% and 20% and 60% (2×) and 70% and 80% and 95% and 98% and 99% and 100% (6×)
- % injury (wild type tobacco plants): 99% (2×) and 100% (4×) and 98%
- % injury ([2]; line 121, individual T1 plants): 0% (4×) and 1% and 2% and 20%
- % injury ([2]; line 129, individual T1 plants): 0% (4×) and 1% (3×) and 2% (3×) and 5% and 10% (2×)
- % injury ([2]; line 218, individual T1 plants): 0% (9×) and 1% (3×) and 2% and 3% and 5%
- appearance of shoots treated with isoxaflutole (wild-type soybean shoots): entirely bleached
- transgenic tested shoots showing normal greening [3]: 1%
